Measured values as given in US20070054916A1, “Aryl nitrogen-containing bicyclic compounds and methods of use” (Amgen Inc., priority 2004, published 2007).

System: production of TNF by monocytes activated with bacterial lipopolysaccharide (LPS)
Assay: Lipopolysaccharide-activated monocyte TNF production assay
Assay type: cell-based
Settings: Homo sapiens, read-out: IC50 values in the monocyte assay (LPS induced TNF release)
Method: Lipopolysaccharide-Activated Monocyte TNF Production Assay
Test compounds were evaluated in vitro for the ability to inhibit the production of TNF by monocytes activated with bacterial lipopolysaccharide (LPS). Fresh residual source leukocytes (a byproduct of plateletpheresis) were obtained from a local blood bank, and peripheral blood mononuclear cells (PBMCs) were isolated by density gradient centrifugation on Ficol-Paque Plus (Pharmacia). PBMCs were suspended at 2×10^6/ml in DMEM supplemented to contain 2% FCS, 10 mM, 0.3 mg/ml […], 100 U/ml penicillin G and […] streptomycin sulfate (complete media). Cells were plated into Falcon flat bottom, 96 well culture plates (200 μl/well) and cultured overnight at 37° C. and 6% CO2. Non-adherent cells were removed by washing with 200 μl/well of fresh medium. Wells containing adherent cells (˜70% monocytes) were replenished with 100 μl of fresh medium.
Preparation of Test Compound Stock Solutions
Test compounds were dissolved in […]. Compound stock solutions were prepared to an initial concentration of […]. Stocks were diluted initially to 20-200 μM in complete media. Nine two-fold serial dilutions of each compound were then prepared in complete medium.
Treatment of Cells with Test Compounds and Activation of TNF Production with Lipopolysaccharide
One hundred microliters of each test compound dilution were added to microtiter wells containing adherent monocytes and 100 μl complete medium. Monocytes were cultured with test compounds for 60 min at which time 25 μl of complete medium containing 30 ng/ml lipopolysaccharide from E. coli K532 were added to each well. Cells were cultured an additional 4 hrs. Culture supernatants were then removed and TNF presence in the supernatants was quantified using an ELISA.
Flat bottom, 96 well Corning High Binding ELISA plates were coated overnight (4° C.) with 150 μL/well of 3 μg/ml murine anti-human TNF-α MAb (R&D Systems #MAB210). Wells were then blocked for 1 hr at room temperature with 200 μL/well of CaCl2-free ELISA buffer supplemented to contain 20 mg/ml BSA (standard ELISA buffer: […], 150 mM NaCl, 2 mM CaCl2, 0.15 mM thimerosal, pH 7.4). Plates were washed and replenished with 100 μl of test supernatants (diluted 1:3) or standards. Standards consisted of eleven 1.5-fold serial dilutions from a stock of 1 ng/ml recombinant human TNF (R&D Systems). Plates were incubated at room temperature for 1 hr on orbital shaker (300 rpm), washed and replenished with 100 μl/well of 0.5 ug/ml goat anti-human TNF-α (R&D systems #AB-210-NA) biotinylated at a 4:1 ratio. Plates were incubated for 40 min, washed and replenished with 100 μl/well of alkaline phosphatase-conjugated streptavidin (Jackson ImmunoResearch #016-050-084) at 0.02 ug/ml. Plates were incubated 30 min, washed and replenished with 200 μl/well of 1 mg/ml of p-nitrophenyl phosphate. After 30 min, plates were read at 405 nm on a Vmax plate reader.
Standard curve data were fit to a second order polynomial and unknown TNF-α concentrations determined from their OD by solving this equation for concentration. TNF concentrations were then plotted vs. test compound concentration using a second order polynomial. This equation was then used to calculate the concentration of test compounds causing a 50% reduction in TNF production.

Row | Compound | IC50
1 | Cc1cc(F)c(C(=O)Nc2cccc(C(F)(F)F)c2)cc1-c1ccc2nc(N)ncc2c1 [Example 126, 5-(2-amino-6-quinazolinyl)-2-fluoro-4-methyl-N-(3-(trifluoromethyl)phenyl)benzamide] | ≤ 25 µM
2 | CC(=O)c1sccc1NC(=O)c1ccc(C)c(-c2ccc3nc(N)ncc3c2)c1 [Example 355, N-(2-acetyl-3-thienyl)-3-(2-amino-6-quinazolinyl)-4-methylbenzamide] | ≤ 25 µM
3 | CNc1ncc2cc(-c3cccc(NC(=O)c4cc(C(F)(F)F)ccc4F)c3C)cnc2n1 [Example 223, 2-fluoro-N-(2-methyl-3-(2-(methylamino)pyrido[2,3-d]pyrimidin-6-yl)phenyl)-5-(trifluoromethyl) benzamide] | ≤ 25 µM
4 | Cc1ccc(C(=O)Nc2ccc(C#N)c(C(F)(F)F)c2)cc1-c1ccc2nc(N)ncc2c1 [Example 125, 3-(2-amino-6-quinazolinyl)-N-(4-cyano-3-(trifluoromethyl)phenyl)-4-methylbenzamide] | ≤ 25 µM
5 | Cc1csc(NC(=O)c2ccc(C)c(-c3ccc4nc(N)ncc4c3)c2)n1 [Example 341, 3-(2-amino-6-quinazolinyl)-4-methyl-N-(4-thiazol-2-yl)benzamide] | ≤ 25 µM
6 | Cc1ccc(C(=O)Nc2cc(C(F)(F)F)ccc2N2CC[C@@H](N(C)C)C2)cc1-c1ccc2nc(N)ncc2c1 [Example 75, 3-(2-amino-6-quinazolinyl)-N-(2-((3R)-3-(dimethylamino)-1-pyrrolidinyl)-5-(trifluoromethyl)phenyl)-4-methylbenzamide] | ≤ 25 µM
7 | COc1ccc(C(C)(C)C)cc1NC(=O)c1ccc(F)c(-c2ccc3nc(N)ncc3c2)c1 [Example 138, 3-(2-amino-6-quinazolinyl)-N-(5-(1,1-dimethylethyl)-2-(methyloxy)phenyl)-4-fluorobenzamide] | ≤ 25 µM
8 | CCN1CCC(CNc2ncc3cc(-c4cc(C(=O)Nc5cccc(C(F)(F)F)c5C)ccc4C)ccc3n2)CC1 [Example 35, 3-(2-(((1-ethyl-4-piperidinyl)methyl)amino)-6-quinazolinyl)-4-methyl-N-(2-methyl-3-(trifluoromethyl)phenyl)benzamide] | ≤ 25 µM
9 | CCN(CC)CCNC(=O)Nc1ccc(NC(=O)c2ccc(C)c(-c3ccc4nc(N)ncc4c3)c2)cc1C(F)(F)F [Example 5, 3-(2-amino-6-quinazolinyl)-N-(4-((((2-(diethylamino)ethyl)amino)carbonyl)amino)-3-(trifluoromethyl)phenyl)-4-methylbenzamide] | ≤ 25 µM
10 | Cc1ccc(C(=O)Nc2ccc(I)cn2)cc1-c1ccc2nc(N)ncc2c1 [Example 353, 3-(2-amino-6-quinazolinyl)-N-(5-iodo-2-pyridinyl)-4-methylbenzamide] | ≤ 25 µM
11 | Cc1ccc(C(=O)Nc2cc(C(F)(F)F)ccc2N2CCCC2)cc1-c1ccc2nc(N)ncc2c1 [Example 80, 3-(2-amino-6-quinazolinyl)-4-methyl-N-(2-(1-pyrrolidinyl)-5-(trifluoromethyl)phenyl)benzamide] | ≤ 25 µM
12 | CN1CCC(c2cc(NC(=O)c3csc(-c4ccc5nc(N)ncc5c4)c3)cc(C(F)(F)F)c2)CC1 [Example 58, 5-(2-amino-6-quinazolinyl)-N-(3-(1-methyl-4-piperidinyl)-5-(trifluoromethyl)phenyl)-3-thiophenecarboxamide] | ≤ 25 µM
13 | CNc1ncc2cc(-c3cc(NC(=O)c4cc(F)cc(C(F)(F)F)c4)ccc3C)cnc2n1 [Example 217, 3-fluoro-N-(4-methyl-3-(2-(methylamino)pyrido[2,3-d]pyrimidin-6-yl)phenyl)-5-(trifluoromethyl) benzamide] | ≤ 25 µM
14 | Cc1ccc(C(=O)Nc2cc(C(F)(F)F)ccc2F)cc1-c1ccc2nc(N)ncc2c1 [Example 280, 3-(2-amino-6-quinazolinyl)-N-(2-fluoro-5-(trifluoromethyl)phenyl)-4-methylbenzamide] | ≤ 25 µM
15 | CCN(CC)CCCOc1ccc(NC(=O)c2ccc(C)c(-c3ccc4nc(N)ncc4c3)c2)cc1C(F)(F)F [Example 122, 3-(2-amino-6-quinazolinyl)-N-(4-((3-(diethylamino)propyl)oxy)-3-(trifluoromethyl)phenyl)-4-methylbenzamide] | ≤ 25 µM
16 | O=C(Nc1cccc(C(F)(F)F)c1)c1cccc(-c2ccc3ccnc(O)c3c2)c1 [Example 51, 3-(1-hydroxy-7-isoquinolinyl)-N-(3-(trifluoromethyl)phenyl)benzamide] | ≤ 25 µM
17 | Cc1ccc(C(F)(F)F)cc1NC(=O)c1ccc(C)c(-c2ccc3nc(N)ncc3c2)c1 [Example 365, 3-(2-amino-6-quinazolinyl)-4-methyl-N-(2-methyl-5-(trifluoromethyl)phenyl)benzamide] | ≤ 25 µM
18 | Cc1ccc(C(=O)Nc2cccc(C(F)(F)F)c2F)cc1-c1ccc2nc(Nc3ccc(N4CCN(C)CC4)cc3)ncc2c1 [Example 30, N-(2-fluoro-3-(trifluoromethyl)phenyl)-4-methyl-3-(2-((4-(4-methyl-1-piperazinyl)phenyl)amino)-6-quinazolinyl) benzamide] | ≤ 25 µM
19 | CNc1ncc2cc(-c3cc(C(=O)Nc4cc(C(C)(C)C)ccc4OC)ccc3C)cnc2n1 [Example 186] | ≤ 25 µM
20 | Cc1ccc(C(=O)NC2CC2)cc1-c1ccc2nc(N)ncc2c1 [Example 40, 3-(2-amino-6-quinazolinyl)-N-cyclopropyl-4-methylbenzamide] | ≤ 25 µM
21 | Cc1ccc(C(=O)OCc2ccccc2)cc1-c1ccc2nc(N)ncc2c1 [Example 160, phenylmethyl 3-(2-amino-6-quinazolinyl)-4-methylbenzoate] | ≤ 25 µM
22 | Nc1ncc2cc(-c3cc(NC(=O)c4cccc(Cl)c4Cl)ccc3Cl)ccc2n1 [Example 482, N-(3-(2-amino-6-quinazolinyl)-4-chlorophenyl)-2,3-dichlorobenzamide] | ≤ 25 µM
23 | Cc1ccc(C(=O)Nc2cc(C(F)(F)F)ccc2OCCCN(C)C)cc1-c1ccc2nc(N)ncc2c1 [Example 144, 3-(2-amino-6-quinazolinyl)-N-(2-((3-(dimethylamino)propyl)oxy)-5-(trifluoromethyl)phenyl)-4-methylbenzamide] | ≤ 25 µM
24 | Cc1ccc(NC(=O)c2ccccc2)cc1-c1ccc2nc(NC(=O)c3ccccc3)ncc2c1 [Example 483, N-(6-(2-methyl-5-((phenylcarbonyl)amino)phenyl)-2-quinazolinyl)benzamide] | ≤ 25 µM
25 | CCN(CC)CC(=O)Nc1cccc(NC(=O)c2ccc(C)c(-c3ccc4nc(N)ncc4c3)c2)c1C [Example 63, 3-(2-amino-6-quinazolinyl)-N-(3-((N,N-diethylglycyl)amino)-2-methyiphenyl)-4-methylbenzamide] | ≤ 25 µM
26 | Cc1ccc(C(=O)Nc2cccc(C(F)(F)F)c2F)cc1-c1ccc2nc(NCCN3CCCC3)ncc2c1 [Example 26, N-(2-fluoro-3-(trifluoromethyl)phenyl)-4-methyl-3-(2-((2-(1-pyrrolidinyl)ethyl)amino)-6-quinazolinyl) benzamide] | ≤ 25 µM
27 | Nc1ncc2cc(-c3cccc(C(=O)Nc4cccc(C(F)(F)F)c4)c3)ccc2n1 [Example 52, 3-(2-amino-6-quinazolinyl)-N-(3-(trifluoromethyl)phenyl)benzamide] | ≤ 25 µM
28 | CN(C)CCCN(C)c1ccc(C(F)(F)F)cc1NC(=O)c1cc(-c2ccc3nc(N)ncc3c2)cn(C)c1=O [Example 164, 5-(2-amino-6-quinazolinyl)-N-(2-((3-(dimethylamino)propyl)(methyl)amino)-5-(trifluoromethyl)phenyl)-1-methyl-2-oxo-1,2-dihydro-3-pyridinecarboxamide] | ≤ 25 µM
29 | CNc1ncc2cc(-c3cccc(NC(=O)c4cccc(C(F)(F)F)c4)c3C)cnc2n1 [Example 198, N-2-methyl-3-(2-(methylamino)pyrido[2,3-d]pyrimidin-6-yl)-N-(3-(trifluoromethyl)phenyl)benzamide] | ≤ 25 µM
30 | Cc1ccc(NC(=O)c2ccc(C)c(-c3ccc4nc(N)ncc4c3)c2)cc1NC(=O)CN1CCOCC1 [Example 62, 3-(2-amino-6-quinazolinyl)-4-methyl-N-(4-methyl-3-((4-morpholinylacetyl)amino)phenyl) benzamide] | ≤ 25 µM
